The values below come from ChEMBL document CHEMBL1201862, “PubChem BioAssay data set” (2004).

Among the test systems are EKVX; MDA-MB-231; HT-29; OVCAR-3; IGROV-1; UACC-62; HL-60; BT-549; SNB-19; COLO 205; DU-145; CCRF-CEM; HOP-92; HCT-15; SF-268; SW-620; 786-0; SN12C; RPMI-8226; MOLT-4.
Assay in all cases: NCI tumour cell line growth inhibition, 48 h

SMILES strings stand for the structures.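 How tested: cells in 96-well plates exposed to compound for 48 hours at five concentrations. GI50 marks 50% less growth.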 The source made the active and inactive calls. Rule as the data show it: active = GI50 up to about 1.1 µM and inactive = higher.

Consider `CCOC(=O)C1(C(=O)OCC)CC(=O)[C@@]2(C1)OCC[C@H]1OC(=O)C[C@H]12`, for which the GI50 in the assay with EKVX, in the assay on MDA-MB-231, in the assay with HT-29, with OVCAR-3, in the assay on IGROV-1 and with UACC-62 was > 100 µM (inactive) each time. Also, the GI50 with HL-60, in the assay with BT-549, in the assay on SNB-19, with COLO 205, with DU-145 and in the assay on CCRF-CEM was > 100 µM (inactive) in each case. Further, the GI50 was > 100 µM (inactive) with HOP-92; more than 100 µM in the assay with HCT-15; > 100 µM (inactive) in the assay with SF-268; > 100 µM (inactive) with SW-620; > 100 µM (inactive) in the assay on 786-0; > 100 µM (inactive) in the assay on SN12C. In addition, the GI50 with RPMI-8226 and in the assay with MOLT-4 was > 100 µM (inactive) each time.
As for `COC1CC(C)(NC(=O)C(F)(F)F)C2OC(c3ccccc3)OCC2O1` (stereo not given), the GI50 in the assay with EKVX was > 100 µM (inactive); with MDA-MB-231 it was > 100 µM (inactive); in the assay on HT-29, 47 µM (inactive); in the assay with OVCAR-3, > 100 µM (inactive); in the assay on IGROV-1 it was > 100 µM (inactive); with UACC-62, > 100 µM (inactive). In addition, the GI50 in the assay on HL-60, in the assay on BT-549, in the assay on SNB-19, in the assay on COLO 205, in the assay with DU-145 and in the assay on CCRF-CEM was > 100 µM (inactive) in each case. For the same compound, the GI50 with HOP-92 was > 100 µM (inactive); with HCT-15, more than 100 µM; in the assay with SF-268, > 100 µM (inactive); with SW-620, > 100 µM (inactive); in the assay on 786-0, > 100 µM (inactive); with SN12C it was > 100 µM (inactive). For the same compound, the figures for the GI50 in the assay with RPMI-8226 and in the assay with MOLT-4 were > 100 µM (inactive) and 47.3 µM (inactive), respectively.
Consider `O=C1O[C@H]2[C@H](O)[C@@H](OC(=O)c3cc(O)c(O)c4c3[C@@H]3C1=CC(=O)C(O)(O)C3(O)O4)[C@H](OC(=O)c1cc(O)c(O)c(O)c1)O[C@@H]2CO` (stereo not given in full) [FUROSIN], for which the GI50 in the assay on EKVX is > 100 µM (inactive); in the assay on MDA-MB-231, > 100 µM (inactive); with HT-29 it was 49.1 µM (inactive); with OVCAR-3, 33.2 µM (inactive); in the assay on IGROV-1, > 100 µM (inactive); in the assay on UACC-62, 75.7 µM (inactive). Besides, the GI50 was 28.2 µM (inactive) with HL-60; > 100 µM (inactive) with BT-549; > 100 µM (inactive) with SNB-19; 99.3 µM (inactive) in the assay with COLO 205; > 100 µM (inactive) in the assay on DU-145; 17.9 µM (inactive) in the assay on CCRF-CEM. Besides, the GI50 with HOP-92 is 42 µM (inactive); in the assay with HCT-15, 36.4 µM; with SF-268, 76.4 µM (inactive); in the assay on SW-620, > 100 µM (inactive); in the assay on 786-0, > 100 µM (inactive); with SN12C, > 100 µM (inactive). The GI50 with RPMI-8226 and with MOLT-4 was > 100 µM (inactive) each time.
